For assay [1], the target named is human kinase Mps-1 (Homo sapiens (Human), UniProt P33981). Description: Mps-1 kinase assay (TR-FRET). To be noted: 10 μM ATP; read-out: Mps1 avg (IC50 [mol/l]). The assay is classed as biochemical. The procedure:
The human kinase Mps-1 phosphorylates a biotinylated substrate peptide. Detection of the phosphorylated product is achieved by time-resolved fluorescence resonance energy transfer (TR-FRET) from Europium-labelled anti-phospho-Serine/Threonine antibody as donor to streptavidin labelled with cross-linked allophycocyanin (SA-XLent) as acceptor. Compounds are tested for their inhibition of the kinase activity.
N-terminally GST-tagged human full length recombinant Mps-1 kinase (purchased from Invitrogen, Karslruhe, Germany, cat. no PV4071) was used. As substrate for the kinase reaction a biotinylated peptide of the amino-acid sequence biotin-Ahx-PWDPDDADITEILG (C-terminus in amide form, purchased from Biosyntan GmbH, Berlin) was used.
For the assay 50 nl of a 100-fold concentrated solution of the test compound in DMSO was pipetted into a black low volume 384 well microtiter plate (Greiner Bio-One, Frickenhausen, Germany), 2 μl of a solution of Mps-1 in assay buffer [0.1 mM sodium-ortho-vanadate, 10 mM MgCl2, 2 mM DTT, 25 mM Hepes pH 7.7, 0.05% BSA (w/v), 0.001% Pluronic F-127] were added and the mixture was incubated for 15 min at 22° C. to allow pre-binding of the test compounds to Mps-1 before the start of the kinase reaction. Then the kinase reaction was started by the addition of 3 μl of a solution of 16.7 μM adenosine-tri-phosphate (ATP, 16.7 μM=>final conc. in the 5 μl assay volume is 10 μM) and peptide substrate (1.67 μM=>final conc. in the 5 μl assay volume is 1 μM) in assay buffer and the resulting mixture was incubated for a reaction time of 60 min at 22° C. The concentration of Mps-1 in the assay was adjusted to the activity of the enzyme lot and was chosen appropriate to have the assay in the linear range, typical enzyme concentrations were in the range of about 0.5 nM (final conc. in the 5 μl assay volume). The reaction was stopped by the addition of 5 μl of a solution of TR-FRET detection reagents (100 mM Hepes pH 7.4, 0.1% BSA, 40 mM EDTA, 140 nM Streptavidin-XLent [#61GSTXLB, Fa. Cis Biointernational, Marcoule, France], 1.5 nM anti-phospho(Ser/Thr)-Europium-antibody [#AD0180, PerkinElmer LAS, Rodgau-Jugesheim, Germany]. Instead of the 1.5 nM anti-phospho(Ser/Thr)-Europium-antibody a mixture of 2 nM unlabeled anti-phospho ser/thr-pro antibody MPM-2 [Millipore cat. #05-368] and 1 nM LANCE EU-W1024 labeled anti-mouse IgG antibody [Perkin-Elmer, product no. AD0077] can be used).
The resulting mixture was incubated 1 h at 22° C. to allow the binding of the phosphorylated peptide to the anti-phospho(Ser/Thr)-Europium-antibody. Subsequently the amount of phosphorylated substrate was evaluated by measurement of the resonance energy transfer from the Europium-labelled anti-phospho(Ser/Thr) antibody to the Streptavidin-XLent. Therefore, the fluorescence emissions at 620 nm and 665 nm after excitation at 350 nm was measured in a Viewlux TR-FRET reader (PerkinElmer LAS, Rodgau-Jugesheim, Germany). The “blank-corrected normalized ratio” (a Viewlux specific readout, similar to the traditional ratio of the emissions at 665 nm and at 622 nm, in which blank and Eu-donor crosstalk are subtracted from the 665 nm signal before the ratio is calculated) was taken as the measure for the amount of phosphorylated substrate. The data were normalised (enzyme reaction without inhibitor=0% inhibition, all other assay components but no enzyme=100% inhibition).

The test system of assay [2] is spindle assembly checkpoint. Description: SAC-Formation - Paclitaxel-Induced Assay. The assay is classed as cell-based. To be noted: Homo sapiens; HeLa cells, paclitaxel 0.05 μM, 24 h, phosphorylated histone H3 on serine 10. The text has this:
The spindle assembly checkpoint assures the proper segregation of chromosomes during mitosis. Upon entry into mitosis, chromosomes begin to condensate which is accompanied by the phosphorylation of histone H3 on serine 10. Dephosphorylation of histone H3 on serine 10 begins in anaphase and ends at early telophase. Accordingly, phosphorylation of histone H3 on serine 10 can be utilized as a marker of cells in mitosis. Nocodazole is a microtubule destabilizing substance. Paclitaxel is a microtubule stabilizing compound. Thus, nocodazole as well as paclitaxel interfere with microtubule dynamics and mobilize the spindle assembly checkpoint. […] The mitotic breakthrough can be detected by the decrease of cells with phosphorylation of histone H3 on serine 10. This decline is used as a marker to determine the capability of compounds of the present invention to induce a mitotic breakthrough. The typical morphological alteration of nuclei with a prematurely completed mitosis after SAC-inhibition can be monitored via image analysis routines supporting those findings.
The nocodazole and paclitaxel variations were used to focus on compounds that are capable of inhibiting a SAC induced by both microtubule destabilization as well as microtubule stabilization. When SAC inducing agents and compounds are given simultaneously, inhibitors that effectively block the SAC during formation or abrogation are identified. When cells are incubated with a SAC inducing agent and the SAC interfering compound is given after a defined time, inhibitors are identified that effectively block SAC abrogation.
Cultivated cells of the human cervical tumor cell line HeLa (ATCC CCL-2) were plated at a density of 1000 cells/well in a 1536-well microtiter plate in 2 μl PAA Ham's F12 Medium supplemented with 1% (v/v) glutamine, 1% (v/v) penicillin, 1% (v/v) streptomycin and 10% (v/v) fetal calf serum. After incubation overnight at 37° C., 10 μl/well paclitaxel at a final concentration of 0.05 μM were added to cells. Test compounds solubilized in dimethyl sulfoxide (DMSO) were added at various concentrations (0 μM, as well as in the range of 0.005 μM-20 μM; the final concentration of the solvent DMSO was 0.5% (v/v)). Cells were incubated for 24 h at 37° C. in the presence of test compounds in combination with paclitaxel. Thereafter, cells were fixed in 4% (v/v) paraformaldehyde in phosphate buffered saline (PBS) at 4° C. overnight then permeabilized in 0.1% (v/v) Triton X™ 100 in PBS at room temperature for 20 min and blocked in 0.5% (v/v) bovine serum albumin (BSA) in PBS at room temperature for 15 min. After washing with PBS, 5 μl/well antibody solution (anti-phospho-histone H3 clone 3H10, FITC; Millipore, Cat #16-222; 1:1000 dilution) was added to cells, which were incubated for 2 h at room temperature. Afterwards, cells were washed with PBS and 5 μl/well solution of HOECHST 33342 dye (5 μg/ml) was added to cells and cells were incubated 15 min at room temperature in the dark. Cells were washed twice with PBS then covered with PBS and stored at 4° C. until analysis. Images were acquired with a PERKIN ELMER OPERA™ High-Content Analysis reader. Images were analyzed with image analysis software MetaXpress™ from Molecular devices utilizing the Mitotic Index application module. In this assay both labels HOECHST 33342 and phosphorylated Histone H3 on serine 10 were measured. HOECHST 33342 labels the DNA and is used to count the cell number. The staining of phosphorylated Histone H3 on serine 10 determines the number of mitotic cells. […] Otherwise cells were arrested at G2/M phase of the cell cycle progression. The raw assay data were further analyzed by four-parametric hill equation using Genedata's Assay Analyzer and Condoseo software.

18 compounds from patent US9682995B2, “Amino-substituted isothiazoles” (BAYER PHARMA AKTIENGESELLSCHAFT, priority 2013, dated 2017) can be followed below.

Each structure is given as a SMILES string.

Sequence of human kinase Mps-1 (P33981 whole entry): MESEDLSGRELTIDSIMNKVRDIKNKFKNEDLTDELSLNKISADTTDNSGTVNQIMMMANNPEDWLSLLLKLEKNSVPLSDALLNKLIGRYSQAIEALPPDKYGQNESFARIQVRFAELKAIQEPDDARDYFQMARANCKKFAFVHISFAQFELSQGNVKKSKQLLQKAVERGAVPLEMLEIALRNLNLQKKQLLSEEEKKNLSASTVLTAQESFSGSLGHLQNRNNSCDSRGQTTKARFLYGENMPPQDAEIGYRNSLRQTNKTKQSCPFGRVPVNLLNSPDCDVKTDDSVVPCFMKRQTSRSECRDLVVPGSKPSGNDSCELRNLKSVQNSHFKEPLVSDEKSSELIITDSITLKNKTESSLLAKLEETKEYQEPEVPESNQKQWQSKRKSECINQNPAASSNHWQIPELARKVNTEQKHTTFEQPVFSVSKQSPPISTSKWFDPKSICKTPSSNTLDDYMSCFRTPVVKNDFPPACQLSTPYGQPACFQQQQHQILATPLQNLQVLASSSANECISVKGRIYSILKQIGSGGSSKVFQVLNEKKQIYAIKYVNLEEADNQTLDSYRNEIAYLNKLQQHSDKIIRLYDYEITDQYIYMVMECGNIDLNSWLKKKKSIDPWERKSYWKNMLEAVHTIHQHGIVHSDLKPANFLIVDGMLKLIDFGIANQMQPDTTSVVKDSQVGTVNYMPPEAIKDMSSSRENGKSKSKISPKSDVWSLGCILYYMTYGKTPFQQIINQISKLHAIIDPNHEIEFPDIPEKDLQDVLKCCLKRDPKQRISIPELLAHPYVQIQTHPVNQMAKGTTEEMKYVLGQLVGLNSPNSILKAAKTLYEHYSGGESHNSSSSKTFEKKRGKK

Regarding `CCc1ccccc1NC(=O)c1c(C)nsc1Nc1cnccn1` [Example 1, N-(2-Ethylphenyl)-3-methyl-5-(pyrazin-2-ylamino)-1,2-thiazole-4-carboxamide], the IC50 in assay [1] is over 20 µM; in assay [2], 4.9 µM.
As for `CCc1ccccc1NC(=O)c1c(C)nsc1Nc1ccnc(C#N)n1` [Example 6, 5-[(2-Cyanopyrimidin-4-yl)amino]-N-(2-ethylphenyl)-3-methyl-1,2-thiazole-4-carboxamide], the IC50 in assay [1] is over 20 µM; in assay [2], 1.2 µM.
In the case of `CCc1ccccc1NC(=O)c1c(C)nsc1Nc1ccc(C#N)cn1` [Example 7, 5-[(5-Cyanopyridin-2-yl)amino]-N-(2-ethylphenyl)-3-methyl-1,2-thiazole-4-carboxamide], the values for the IC50 in assay [1] and in assay [2] were over 20 µM and 2.5 µM, respectively.
On the same counts, the results for `CCc1ccccc1NC(=O)c1c(C)nsc1Nc1ncccc1C#N` [Example 8, 5-[(3-Cyanopyridin-2-yl)amino]-N-(2-ethylphenyl)-3-methyl-1,2-thiazole-4-carboxamide] are over 20 µM and 18 µM.
For `CCc1ccccc1NC(=O)c1c(C)nsc1Nc1cc(-n2ccnc2)ncn1` [Example 9, N-(2-Ethylphenyl)-5-{[6-(1H-imidazol-1-yl)pyrimidin-4-yl]amino}-3-methyl-1,2-thiazole-4-carboxamide], the IC50 in assay [1] is over 20 µM; in assay [2], 3 µM.
Consider `CCc1ccccc1NC(=O)c1c(C)nsc1Nc1ncnc2ccccc12` [Example 10, N-(2-Ethylphenyl)-3-methyl-5-(quinazolin-4-ylamino)-1,2-thiazole-4-carboxamide], for which the results for the IC50 in assay [1] and in assay [2] were over 20 µM and 11 µM, respectively.
For the compound `CCc1ccccc1NC(=O)c1c(C)nsc1Nc1nc2ccccc2o1` [Example 11, 5-(1,3-Benzoxazol-2-ylamino)-N-(2-ethylphenyl)-3-methyl-1,2-thiazole-4-carboxamide], the IC50 in assay [1] is over 20 µM; in assay [2], 2.9 µM.
On to `CCc1ccccc1NC(=O)c1c(C)nsc1Nc1ncnc2sccc12` [Example 12, N-(2-Ethylphenyl)-3-methyl-5-(thieno[2,3-d]pyrimidin-4-ylamino)-1,2-thiazole-4-carboxamide], for which the IC50 is over 20 µM in assay [1] and 6.9 µM in assay [2].
For the compound `CCc1ccccc1NC(=O)c1c(C)nsc1Nc1ncnc2ccsc12` [Example 13, N-(2-Ethylphenyl)-3-methyl-5-(thieno[3,2-d]pyrimidin-4-ylamino)-1,2-thiazole-4-carboxamide], the IC50 was over 20 µM in assay [1] and 2.1 µM in assay [2].
On the same counts, the results for `CCc1ccccc1NC(=O)c1c(C)nsc1Nc1nc2ccccc2s1` [Example 14, 5-(1,3-Benzothiazol-2-ylamino)-N-(2-ethylphenyl)-3-methyl-1,2-thiazole-4-carboxamide] are over 20 µM and 0.76 µM.
With `CCc1ccccc1NC(=O)c1c(C)nsc1Nc1cc(NC)ncn1` [Example 15, N-(2-Ethylphenyl)-3-methyl-5-{[6-(methylamino)pyrimidin-4-yl]amino}-1,2-thiazole-4-carboxamide], the IC50 in assay [1] and in assay [2] was over 20 µM each time.
In the case of `CCc1ccccc1NC(=O)c1c(C)nsc1Nc1nccc(OC)n1` [Example 16, N-(2-Ethylphenyl)-5-[(4-methoxypyrimidin-2-yl)amino]-3-methyl-1,2-thiazole-4-carboxamide], the IC50 in assay [1] and in assay [2] was over 20 µM in each case.
Regarding `CCc1ccnc(Nc2snc(C)c2C(=O)Nc2ccccc2CC)n1` [Example 17, N-(2-Ethylphenyl)-5-[(4-ethylpyrimidin-2-yl)amino]-3-methyl-1,2-thiazole-4-carboxamide], the IC50 is over 20 µM in assay [1] and 19 µM in assay [2].
`CCc1ccccc1NC(=O)c1c(C)nsc1Nc1cc(C(F)(F)F)ccn1` [Example 18, N-(2-Ethylphenyl)-3-methyl-5-{[4-(trifluoromethyl)pyridin-2-yl]amino}-1,2-thiazole-4-carboxamide]: the IC50 is over 20 µM in assay [1] and 2 µM in assay [2].
`CCc1ccccc1NC(=O)c1c(C)nsc1Nc1cnc2ccccc2n1` [Example 19, N-(2-Ethylphenyl)-3-methyl-5-(quinoxalin-2-ylamino)-1,2-thiazole-4-carboxamide]: the IC50 in assay [1] was over 20 µM; in assay [2], 0.14 µM.
On to `CCc1ccccc1NC(=O)c1c(C)nsc1Nc1cnc2cc(F)ccc2n1` [Example 20, N-(2-Ethylphenyl)-5-[(6-fluoroquinoxalin-2-yl)amino]-3-methyl-1,2-thiazole-4-carboxamide], for which the IC50 was over 20 µM in assay [1] and 0.4 µM in assay [2].
With `Cc1nsc(Nc2cc(C#N)ccn2)c1C(=O)Nc1ccc(Oc2ccccc2)nc1` [Example 111, 5-[(4-Cyanopyridin-2-yl)amino]-3-methyl-N-(6-phenoxypyridin-3-yl)-1,2-thiazole-4-carboxamide], the IC50 in assay [2] was found to be 1.8 µM.
Turning to `Cc1nsc(Nc2cc(C#N)ccn2)c1C(=O)Nc1ccc(Oc2ccc(F)cc2F)nc1` [Example 114, 5-[(4-Cyanopyridin-2-yl)amino]-N-[6-(2,4-difluorophenoxy)pyridin-3-yl]-3-methyl-1,2-thiazole-4-carboxamide], the IC50 in assay [2] was 0.12 µM.
